pEC50: −log10 of the molar value. Several values for one entry are separate records, joined by “and”; a condition that tells them apart may be missing. Identical values can stand only once. Entries after “also recorded” stand apart in the source; their conditions may differ.
Columns and labels:
[1] = test system: U251 human glioblastoma cells; assay: Rat orthotopic glioblastoma model radiotherapy, cilengitide scheduling experiments; format: in vivo, NIH mu nude rats; settings: for Days Post Implant (survival): listed as Rt + EMD, 4 mg/kg
Method: NIH mu nude rats are anaesthetized, restrained, and injected intracerebrally 1 mm retro orbitally, 3 mm to the right of the bregma and at a depth of 2.5 mm with 5×10E5 U251 human glioblastoma cells suspended in 10 ul of culture medium, using a #2701 Hamilton syringe fitted with a 26 gauge needle, essentially as previously described (Engebraaten et al., 1999). After 14 days, cilengitide (4 mg/kg) is given as an intraperitoneal bolus in PBS, at various time (8 h, 4 h, 2 h, 1 h) prior to a single treatment with single, collimated, dorsal-ventral beam of 6 MV x-rays, so that 95-100% of the central axis dose of 25 Gy hit the tumor volume (Kim et al., 1999). Each of the 7 subsequent days the animals also received an identical i.p. bolus of cilengitide. The animals are maintained under ad libitum food and drink until they become moribund, or are sampled for tissue analysis (in the t-4 and t-8 h groups, where the animals are healthy past 230 days post tumor injection). A Kaplan-Meier survival curve is calculated and plotted (FIG. 1) from the raw data (Table 1). All animals in the RT monotherapy group died by 120 d.

[2] = test system: patients with recurrent glioblastoma (GBM); assay: Phase IIa trial of cilengitide single agent therapy in patients with recurrent glioblastoma; format: in vivo, human
Method: Background: The present phase IIa study was designed to evaluate the safety, toxicity, and clinical activity of the cyclic RGD pentapeptide cilengitide ((=cyclo-(Arg-Gly-Asp-DPhe-NMe-Val)), an inhibitor of integrins αvβ3 and αvβ5, as a single agent at doses of 500 and 2000 mg in patients (pts) with recurrent glioblastoma (GBM).
Methods: In this multicenter, open-label, randomized, uncontrolled study, pts with GBM and measurable disease that had relapsed after previous therapy with temozolomide and radiotherapy were randomized to receive cilengitide at doses of either 500 mg or 2000 mg i.v., 2×/week, until progression.
Histopathology diagnosis and MRI imaging were subject to independent blinded review. The primary endpoint was Progression Free Survival (PFS) at 6 months (mths). Secondary endpoints included response, survival, time to disease progression, safety, tolerability and pharmacokinetics.

[3] = test system: patients with newly diagnosed glioblastoma (GBM); assay: Phase I/IIa trial of cilengitide and temozolomide with concomitant radiotherapy, then maintenance, in newly diagnosed glioblastoma; format: in vivo, human
Method: Patients and methods: Fifty-two pts (PS 0-1: 92%, 2: 8%; median age 57 yrs) after biopsy (n=9/17%) or tumor resection (n=43/83%) were treated with standard TMZ/RT (Stupp et al. NEJM 2005). In addition Cilengitide (500 mg i.v., 2×/week) was started one week before TMZ/RT and given throughout for the duration of chemotherapy or until progression. Primary endpoint was progression free survival rate at 6 months (target: 65%). Patients were followed with MRI every 2 months. Histopathologic diagnosis and MRI imaging were independently reviewed, MGMT promoter methylation status was assessed in 45 (86.5%) pts.

NSCLC (A549) = assay: Proliferation assay (vitronectin-coated plates, Alamar Blue); format: cell-based; settings: A549, 72 hours; concentration held constant in combination with chemotherapeutic agents; read-out: constant EC50 concentration of alpha V integrin blocker
Method: A549-DMEM containing 10% FCS (heat-inactivated) plus 2 mM glutamine,
(§1) Briefly, 2.5×10e4 cells/well in RPMI containing 0.5% BSA and 25 mM Hepes pH 7.4 attached to non-tissue culture treated 96-well plates coated with serially diluted vitronectin, fibronectin, fibrinogen and collagen I for 60 minutes at 37° C. After washing to remove unbound cells the relative cell number is determined by incubation with hexosaminidase substrate. The colormetric reaction is read at 405 nm in a Genios plate reader (SLT). Proliferation assay Non-tissue cultures treated 96 well plates are coated using 100 ul/well of a 2 ug/ml vitronectin solution in PBS incubated overnight at 4° C. Cells are plated at 5×10e3 in 100 ul cell culture medium (as described above for each cell line). […] Plates are incubated for 72 hours, after which relative cell number is determined by the addition of 20 ul/well Alamar Blue (Resazurin) (Nakayama et al. 1997). After 4 hours of incubation at 37° C. relative fluorescent intensity is read in a Genios plate reader (SLT) at 535/590 nm (excitation/emission).
(§2) Points are run in triplicate. Reagent blanks, containing media plus colormetric reagent without cells, are run on each plate. Blank values are subtracted from test values and are routinely 5-10% of uninhibited control values. […]

[4] = test system: Endothelial Cells (HUVEC); assay: as above; format: cell-based; settings: 72 hours, concentration held constant in combination with chemotherapeutic agents, read-out: constant EC50 concentration of alpha V integrin blocker
Method: HUVEC-DMEM containing 10% FCS (heat-inactivated) plus 2 mM glutamine and 1 mM sodium pyruvate.
as §1, §2

various brain tumors = settings: cited from earlier work

In the case of CC(C)[C@H]1C(=O)N[C@@H](CCCN=C(N)N)C(=O)NCC(=O)N[C@@H](CC(=O)O)C(=O)N[C@H](Cc2ccccc2)C(=O)N1C [Cilengitide, cyclo-(Arg-Gly-Asp-DPhe-NMeVal)], the “Days Post Implant (survival)” value ([1]; cilengitide bolus 4 mg/kg i.p. 1 hour pre-irradiation (Rt 25 Gy) plus 7 daily boluses, all Sick (moribund)) was 112 days and 113 days and 130 days and 141 days, the “Days Post Implant (survival)” value ([1]; cilengitide bolus 4 mg/kg i.p. 2 hours pre-irradiation (Rt 25 Gy) plus 7 daily boluses, all Sick (moribund)) was 120 days and 147 days and 162 days and 196 days and the “Days Post Implant (survival)” value ([1]; cilengitide bolus 4 mg/kg i.p. 4 hours pre-irradiation (Rt 25 Gy) plus 7 daily boluses, Healthy/Alive animals not dead at day shown) was 238 days and 254 days. For the same molecule, the “Days Post Implant (survival)” value ([1]; cilengitide bolus 4 mg/kg i.p. 8 hours pre-irradiation (Rt 25 Gy) plus 7 daily boluses, Healthy/Alive animals not dead at day shown) was 287 days and 257 days, the “animals healthy, days post tumor injection” value ([1]; t-4 and t-8 h groups, cilengitide 4 mg/kg plus 25 Gy) was over 230 days and the “median Overall Survival (mOS)” value ([2]; 500 mg arm, i.v. 2x/week) was 6.5 mths. The “tumor control, dose comparison” value ([2]; 2000 mg 2x/week versus 500 mg, not statistically significant) was “trend towards better tumor control”, the “12 mth overall survival (OS) rate” value ([2]; 2000 mg arm, i.v. 2x/week) was 37.5% and the “median Overall Survival (mOS)” value ([2]; 2000 mg arm, i.v. 2x/week) was 9.9 mths. For the same molecule, the “Treatment related NCI CTC grade 3 adverse events” value ([2]; at 500 mg, each in 1 patient) was “elevated liver enzymes; also recorded: arthralgia/myalgia”, the “Treatment related NCI CTC grade 3 adverse events” value ([2]; at 2000 mg, in 1 patient) was “weight increase/edema” and the “grade 4 therapy related AEs” value ([2]; both arms) was “No grade 4 therapy related AEs”. The “pts who received 12 or more cycles of therapy” value ([2]; both arms, 10 pts (n=4 with 500 mg, n=6 with 2000 mg), 1 cycle=4 weeks) was 12.3%, the “pts still progression-free and on treatment” value ([2]; both arms, six pts, at time abstract was issued) was 7.4% and the cerebral hemorrhage ([2]; possibly related either to the drug or to the disease) was “One CTC grade 2 cerebral hemorrhage”. The single agent activity ([2]; recurrent glioblastoma) was “advantageous single agent activity”, the tolerability ([2]; single agent therapy at two dose levels) was “tolerated well” and the “haematological grade 3 and 4 toxicity: neutropenia” value ([3]; Cilengitide 500 mg plus TMZ/RT, 5/52) was 9.6%. The “Treatment related non-hematologic grade 3 toxicities, patients” value ([3]; Cilengitide 500 mg plus TMZ/RT, n=3/52) was 5.7%, the PFS-6 rate ([3]; Cilengitide 500 mg plus TMZ/RT, subgroup with methylated MGMT promoter (23/52)) was 91% and the tolerability ([3]; combination of Cilengitide and TMZ/RT) was “well tolerated”. The other adverse event ([3]; one patient with a history of sigmoid diverticulosis) was “sigmoid perforation (grade 2)”, the pEC50 (NSCLC (A549)) was 8.22 and the pEC50 [4] was 9.70. For the same molecule, the MTD in humans (various brain tumors; human, in vivo) was “no known MTD”, the tolerability (various brain tumors; human, in vivo) was “very well tolerated” and the response (various brain tumors; in some of the GBM patients) was “an indication of response was seen”.
